Cl.N=C(N)Nc1ccc(C(=O)O)cc1
Conditions	solubility (mole fraction)
in ethanol, 294.95 K	0.00291
in ethanol, 300.05 K	0.00316
in ethanol, 305.95 K	0.00343
in ethanol, 310.25 K	0.00387
in ethanol, 315.25 K	0.0042
in ethanol, 320.25 K	0.00478
in ethanol, 325.55 K	0.00514
in ethanol, 330.65 K	0.00558
in isopropanol, 296.35 K	0.0008
in isopropanol, 301.75 K	0.00106
in isopropanol, 307.55 K	0.00127
in isopropanol, 312.95 K	0.00149
in isopropanol, 317.35 K	0.00158
in isopropanol, 321.35 K	0.0017
in isopropanol, 325.15 K	0.00186
in isopropanol, 328.25 K	0.00201
in methanol, 297.95 K	0.0118
in methanol, 302.45 K	0.0128
in methanol, 307.45 K	0.0143
in methanol, 312.95 K	0.0155
in methanol, 317.45 K	0.017
in methanol, 321.25 K	0.0181
in methanol, 324.85 K	0.0192
in methanol, 328.55 K	0.0203
in n-butanol, 293.25 K	0.00103
in n-butanol, 296.85 K	0.00124
in n-butanol, 300.05 K	0.00137
in n-butanol, 303.15 K	0.00149
in n-butanol, 307.55 K	0.00163
in n-butanol, 314.75 K	0.00182
in n-butanol, 320.15 K	0.00194
in n-butanol, 327.15 K	0.00216
in n-pentanol, 292.05 K	0.00042
in n-pentanol, 296.55 K	0.00071
in n-pentanol, 301.75 K	0.0008
in n-pentanol, 310.05 K	0.00096
in n-pentanol, 316.75 K	0.00103
in n-pentanol, 322.95 K	0.00114
in n-pentanol, 327.95 K	0.00121
in n-pentanol, 334.15 K	0.00136
in n-propanol, 295.05 K	0.00368
in n-propanol, 300.75 K	0.00436
in n-propanol, 305.75 K	0.00495
in n-propanol, 309.95 K	0.00564
in n-propanol, 314.55 K	0.00633
in n-propanol, 319.35 K	0.00716
in n-propanol, 322.85 K	0.00753
in n-propanol, 327.75 K	0.00815
in water, 298.05 K	0.00532
in water, 304.55 K	0.00685
in water, 309.95 K	0.00884
in water, 314.85 K	0.0108
in water, 318.55 K	0.0129
in water, 323.55 K	0.0155
in water, 328.85 K	0.018
in water, 333.65 K	0.0218

— BigSolDB 2.1
